US20230250077A1, “SULFONYLBENZAMIDE DERIVATIVE AND CONJUGATE THEREOF, PREPARATION METHOD THEREFOR AND USE THEREOF” (Jiangsu Hengrui Pharmaceuticals Co., Ltd., priority 2020, published 2023)
Entries after “also recorded” stand apart in the source; their conditions may differ. Marks after values point to notes of the source that are not given here.

Columns and labels:
SD rats = assay: Toxicity test on SD rats by repeated intravenous administrations for 7 days; type: in vivo, rat; conditions: 1 mg/kg intravenously qd
Description: This experiment was performed to evaluate the toxicity of compound 9 and AZD4320 to SD rats by repeated intravenous administrations for 7 days.
30 SD rats, weighing about 180-200 g and aged 6-7 weeks, half male and half female, purchased from Zhejiang Vital River Laboratory Animal Technology Co., Ltd., SPF grade. Animal certification number: 200917Aazz0619000298 and 20200917Aazz0619000104. Production license number: SCXK (Zhejiang) 2019-0001.
Housing conditions: SPF grade, animals were housed in plastic and transparent rat cages, 2-3 per cage. The room temperature was 20-26° C. and the relative humidity was 40%-70%. The illumination was controlled in a 12/12 light/dark cycle. The granulated feed for mice was freely taken in an unlimited amount.
The rats were randomly divided into the following 3 groups: a vehicle control group, a compound 9-1 mg/kg group and a compound AZD4320-1 mg/kg group, with 6 rats in each group, half male and half female.
Dosage of the test sample for the 7-day toxicity test in rats: 1 mg/kg (qd), for 7 consecutive days. Administration route: intravenously, dosing volume: 10 mL/kg, dosing frequency and dosing period: daily in the morning for 7 days.
Vehicle: 1.5% DMA+98.5% (10% HS-15), wherein DMA is N,N-dimethylacetamide (Shanghai Titan Scientific Co., Ltd., Cat #01013630); and HS-15 is polyethylene glycol stearate 15 (Solutol HS15) (Shanghai Xietai Chemical Co., Ltd., Cat #50253404).
Hitachi 7100 automatic biochemical analyzer
Siemens advia 2120i automatic blood cell analyzer
Sysmex ca1500 automatic coagulation analyzer
The detection results were input and statistically processed by Excel of the computer.
Clinical symptoms, food intake and general visual observation results of dissection were not statistically calculated, and indexes such as body weight, organ weight and clinical examination were counted by using T-test.
SD rats were intravenously administered with 1 mg/kg compound 9 or 1 mg/kg AZD4320 at 5 mL/kg for 7 repeated days.

BCL-2 = molecular target: T1, BCL-2 (Homo sapiens, UniProt P10415); assay: Binding activity for BCL-2 (HTRF, biotin-labeled BIM); conditions: His-tagged BCL-2, biotin-labeled BIM
T1 construct: purchased R&D systems 827-BC-050
Description: In vitro BCL-2-binding activity was tested by the following method.
Reagents used in this experiment: His-tagged BCL-2 protein (R&D systems, Cat #827-BC-050); biotin-labeled BIM protein (R&D, Cat #3526/1); binding buffer (cisbio, Cat #62DLBDDF); assay buffer (cisbio, Cat #62DB1FDG); MAb anti-6His-Eu cryptate (cisbio, Cat #61HI2KLA); and affinity streptomycin linked XL665 (cisbio, Cat #611SAXLA).
The in vitro binding assay described below can determine the binding activity of test compounds for BCL-2.
The test compounds were dissolved in dimethyl sulfoxide and diluted to gradient concentrations as required for the experiment, and the compounds at various concentrations formulated in dimethyl sulfoxide were subjected to a 100-fold dilution with a binding buffer. BCL-2 was diluted to the corresponding concentration with a binding buffer solution, and added to a white 384-well plate at 4 μL/well. Then the diluted test compound was added into the white 384-well plate at 2 μL/well. The plate was incubated at 25° C. for 1 h after the mixture was uniformly mixed. Biotin-labeled BIM protein was diluted to the corresponding concentration with a binding buffer, and added to a white 384-well plate at 4 μL/well. The plate was incubated at 25° C. for 2 h after the mixture was uniformly mixed. The MAb anti-6His-Eu cryptate and the affinity streptomycin linked XL665 were each diluted to the corresponding concentration with an assay buffer, and added to a white 384-well plate at 5 μL/well. The plate was incubated at 25° C. for 2-4 h after the mixture was uniformly mixed. The signal values were read with the HTRF program in a microplate reader (BMG Labtech, model: PHERAstar FS).

[1] = Pharmacokinetic evaluation in mice (iv, LC/MS/MS plasma); type: in vivo; conditions: intravenous administration
Description: The drug concentration in the plasma of the test animals (mice) at different time points after intravenous (iv) administration of compound 10 and AZD4320 was determined by an LC/MS/MS method. The pharmacokinetic behavior of the compounds of the present disclosure in mice was studied and their pharmacokinetic profile was valuated.
18 C57 mice, female, randomly divided into 2 groups, purchased from Zhejiang Vital River Laboratory Animal Technology Co., Ltd, animal production license number: SCXK (Shanghai) 2017-0005.
A certain amount of compound 10 was weighed, dissolved by adding 5% by volume of DMSO and 5% Tween 80 (Shanghai Titan Scientific Co., Ltd.), and then prepared into a 0.1 mg/mL clear solution by adding 90% normal saline. Compound AZD4320 was formulated as with compound 10. […]
(§1) The mice were intravenously administered with compound 10, and 0.1 mL of blood was collected before the administration and 5 min, 0.25 h, 0.5 h, 1.0 h, 2.0 h, 4.0 h, 8.0 h, 11.0 h and 24.0 h after the administration, put into an EDTA-K2 anticoagulation tube, centrifuged at 10,000 rpm for 1 min (4° C.). Plasma was separated within 1 hour, and stored at −20° C. for testing. The process from blood collection to centrifugation was performed under an ice bath.
as §1, with “compound AZD4320,” for “compound 10,”
The content of the test compounds at different concentrations in plasma of mice after the administration was determined: 10 μL of plasma of mice at each time point after the administration was mixed with 200 μL of methanol (containing an internal standard solution camptothecin (100 ng/mL)); the mixture was vortexed for 1 min, and centrifuged for 10 min (18,000 r/min), and 3 μL of supernatant was taken for LC/MS/MS analysis.

T1 sequence (P10415 whole entry): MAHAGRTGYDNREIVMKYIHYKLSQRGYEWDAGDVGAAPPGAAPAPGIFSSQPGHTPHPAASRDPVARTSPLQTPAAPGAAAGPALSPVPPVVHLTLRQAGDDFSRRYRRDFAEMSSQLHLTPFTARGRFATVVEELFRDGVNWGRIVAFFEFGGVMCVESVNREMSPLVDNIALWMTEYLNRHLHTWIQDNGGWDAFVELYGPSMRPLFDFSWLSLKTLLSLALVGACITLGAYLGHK

SMILES: O=C(NS(=O)(=O)c1ccc(N[C@@H](CSc2ccccc2)C[C@@H]2CCCN2CCO)c(S(=O)(=O)C(F)(F)F)c1)c1ccc(N2CCC([C@@H](O)c3ccccc3-c3ccc(Cl)cc3)CC2)cc1 [Example 2-9, 4-(4-((R)-(4′-chloro-[1,1′-biphenyl]-2-yl)(hydroxy)methyl)piperidin-1-yl)-N-((4-(((R)-1-((S)-1-(2-hydroxyethyl)pyrrolidin-2-yl)-3-(phenylthio)propan-2-yl)amino)-3-((trifluoromethyl)sulfonyl)phenyl)sulfonyl)benzamide]
- Clinical observation of the animals during treatment (SD rats): No significant abnormalities
- PLT (10^9/L) (SD rats): 1,258.67* 10^9/L
- Effect on platelets (in words) (SD rats; vs vehicle control, listed as compound 9, 1 mg/kg): slightly reduced but within the background normal range; also recorded: reduces platelets less than the positive control group
- Ki (BCL-2): 0.02 nM

SMILES: CN(CCO)CC[C@H](CSc1ccccc1)Nc1ccc(S(=O)(=O)NC(=O)c2ccc(N3CCC([C@@H](O)c4ccccc4-c4ccc(C(F)(F)F)cc4)CC3)cc2)cc1S(=O)(=O)C(F)(F)F [Example 2-10, 4-(4-((R)-hydroxy(4′-(trifluoromethyl)-[1,1′-biphenyl]-2-yl)methyl)piperidin-1-yl)-N-((4-(((R)-4-((2-hydroxyethyl)(methyl)amino)-1-(phenylthio)butan-2-yl)amino)-3-((trifluoromethyl)sulfonyl)phenyl)sulfonyl)benzamide]
- Clearance CLz/F ([1]; C57 mice, female, dose 1 mg/kg (table)): 50.3 mL/min/kg
- Clearance in mice (in words) ([1]; mice): cleared slowly
- Elimination phase half-life compared with the positive control AZD 4320 (in words) ([1]; mice): longer elimination phase half-life than the positive control AZD 4320
- AUC(0-t) ([1]; mouse, plasma, C57 mice, female, dose 1 mg/kg (table), read-out: Area under curve AUC0-t): 296 ng·h/mL
- half-life ([1]; mouse, plasma, C57 mice, female, dose 1 mg/kg (table), read-out: Half-life T½ (converted)): 13 h
- MRT inf ([1]; mouse, plasma, C57 mice, female, dose 1 mg/kg (table), read-out: Mean retention time MRT 0-∞): 7.3 h
- concentration at 5 min ([1]; mouse, plasma, C57 mice, female, dose 1 mg/kg (table), read-out: Plasma Concentration C5 min): 608 ng/mL
- Ki (BCL-2): 0.03 nM
